Measurements: patent US9783527B2, “Indazole ureas and method of use” (AbbVie Inc., priority 2014, dated 2017)

Target: human Nav1.7 (Homo sapiens (Human), UniProt Q15858)
Test: FRET-based membrane potential assay, recombinant human sodium channel Nav1.7
Type: cell-based
Details: HEK293 cells stably expressing recombinant human Nav1.7; depolarization with veratridine (EC80) + scorpion venom
Outline: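 IC50 derived by four-parameter Hill fit of percent inhibition of depolarization, measured as peak F440-480/F565-625 ratio over baseline. Stable human Nav1.7 HEK293 cells, dye-loaded with CC2-DMPE and DiSBAC2(3)/VABSC-1 at room temperature, received compound 3 min ahead of veratridine (EC80) plus scorpion venom.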

Sequence of human Nav1.7 (Q15858 whole entry): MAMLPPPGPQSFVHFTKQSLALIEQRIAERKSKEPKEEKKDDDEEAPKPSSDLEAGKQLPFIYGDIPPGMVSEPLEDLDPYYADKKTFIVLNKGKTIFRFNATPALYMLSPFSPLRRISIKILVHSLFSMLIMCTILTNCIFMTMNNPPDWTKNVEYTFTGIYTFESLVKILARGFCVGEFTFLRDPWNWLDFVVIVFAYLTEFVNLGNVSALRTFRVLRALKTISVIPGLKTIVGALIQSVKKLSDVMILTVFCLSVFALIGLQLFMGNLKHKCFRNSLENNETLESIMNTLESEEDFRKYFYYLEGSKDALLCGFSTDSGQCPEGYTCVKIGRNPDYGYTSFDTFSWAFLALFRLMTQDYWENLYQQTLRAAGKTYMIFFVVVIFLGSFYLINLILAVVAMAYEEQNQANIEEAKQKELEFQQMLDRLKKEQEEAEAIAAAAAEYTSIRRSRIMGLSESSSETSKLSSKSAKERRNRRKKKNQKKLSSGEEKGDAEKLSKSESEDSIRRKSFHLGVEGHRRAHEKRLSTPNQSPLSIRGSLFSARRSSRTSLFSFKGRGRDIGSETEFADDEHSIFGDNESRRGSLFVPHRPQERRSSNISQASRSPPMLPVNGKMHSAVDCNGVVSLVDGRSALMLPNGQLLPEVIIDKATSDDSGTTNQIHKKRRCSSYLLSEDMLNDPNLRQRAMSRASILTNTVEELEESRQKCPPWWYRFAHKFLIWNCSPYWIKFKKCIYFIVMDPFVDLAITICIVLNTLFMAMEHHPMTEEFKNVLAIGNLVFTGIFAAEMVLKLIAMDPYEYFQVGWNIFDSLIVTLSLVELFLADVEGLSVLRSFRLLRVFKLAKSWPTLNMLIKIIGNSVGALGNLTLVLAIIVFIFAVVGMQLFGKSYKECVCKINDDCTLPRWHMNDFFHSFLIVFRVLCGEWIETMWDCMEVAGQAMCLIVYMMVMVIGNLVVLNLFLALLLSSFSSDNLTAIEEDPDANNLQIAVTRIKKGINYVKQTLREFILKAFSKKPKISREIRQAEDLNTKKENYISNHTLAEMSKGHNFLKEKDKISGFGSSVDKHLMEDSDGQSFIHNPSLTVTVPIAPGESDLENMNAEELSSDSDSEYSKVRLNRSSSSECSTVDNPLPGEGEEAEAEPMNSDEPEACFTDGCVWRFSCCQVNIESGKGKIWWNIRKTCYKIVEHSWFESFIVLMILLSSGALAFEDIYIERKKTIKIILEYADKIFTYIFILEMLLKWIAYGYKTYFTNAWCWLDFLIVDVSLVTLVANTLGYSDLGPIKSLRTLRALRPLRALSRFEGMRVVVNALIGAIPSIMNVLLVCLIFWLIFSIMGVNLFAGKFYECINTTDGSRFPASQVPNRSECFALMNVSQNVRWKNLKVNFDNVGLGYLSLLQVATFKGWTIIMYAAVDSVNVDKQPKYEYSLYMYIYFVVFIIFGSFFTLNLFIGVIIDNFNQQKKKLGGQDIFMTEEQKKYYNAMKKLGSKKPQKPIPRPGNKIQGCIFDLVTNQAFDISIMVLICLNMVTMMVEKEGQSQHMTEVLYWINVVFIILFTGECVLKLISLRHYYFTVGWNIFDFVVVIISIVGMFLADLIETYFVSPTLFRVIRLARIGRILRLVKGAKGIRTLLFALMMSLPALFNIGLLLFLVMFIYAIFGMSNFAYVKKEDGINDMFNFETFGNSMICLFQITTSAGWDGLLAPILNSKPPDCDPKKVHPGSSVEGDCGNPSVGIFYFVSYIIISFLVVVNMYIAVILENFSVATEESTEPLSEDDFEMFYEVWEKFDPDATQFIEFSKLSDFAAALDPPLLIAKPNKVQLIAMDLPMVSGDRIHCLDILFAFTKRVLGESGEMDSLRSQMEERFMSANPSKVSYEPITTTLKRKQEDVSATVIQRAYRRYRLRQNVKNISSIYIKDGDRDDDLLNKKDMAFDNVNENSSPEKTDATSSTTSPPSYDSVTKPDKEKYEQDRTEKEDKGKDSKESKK

CC(C)CCCC(O)CN1CCN(c2cccc3c2cnn3-c2ccccc2F)C1=O (stereo not shown) [Example 133, 1-[1-(2-fluorophenyl)-1H-indazol-4-yl]-3-(2-hydroxy-6-methylheptyl)imidazolidin-2-one]
IC50: 0.525 µM

CCOC(=O)/C=C\N1CCN(c2cccc3c2cnn3-c2ccccc2F)C1=O [Example 287, ethyl (2Z)-3-{3-[1-(2-fluorophenyl)-1H-indazol-4-yl]-2-oxoimidazolidin-1-yl}acrylate]
IC50: 5.8 µM

O=C1N(CC(O)CC2CCC2)CCN1c1cccc2c1cnn2-c1ccccc1F (stereo not shown) [Example 141, 1-(3-cyclobutyl-2-hydroxypropyl)-3-[1-(2-fluorophenyl)-1H-indazol-4-yl]imidazolidin-2-one]
IC50: 1.16 µM

COc1cncc(N2CCN(c3cccc4c3cnn4-c3ccccc3F)C2=O)c1 [Example 230, 1-[1-(2-fluorophenyl)-1H-indazol-4-yl]-3-(5-methoxypyridin-3-yl)imidazolidin-2-one]
IC50: 3.73 µM

CC(C)(C)OC(=O)N1CC(N2CCN(c3cccc4c3cnn4-c3ccccc3F)C2=O)C1 [Example 267, tert-butyl 3-{3-[1-(2-fluorophenyl)-1H-indazol-4-yl]-2-oxoimidazolidin-1-yl}azetidine-1-carboxylate]
IC50: 1.09 µM

Cc1noc(C)c1CN1CCCN(c2cccc3c2cnn3-c2ccccc2F)C1=O [Example 258, 1-[(3,5-dimethyl-1,2-oxazol-4-yl)methyl]-3-[1-(2-fluorophenyl)-1H-indazol-4-yl]tetrahydropyrimidin-2(1H)-one]
IC50: 11 µM

Cc1cncc(CN2CCCN(c3cccc4c3cnn4-c3ccccc3F)C2=O)n1 [Example 259, 1-[1-(2-fluorophenyl)-1H-indazol-4-yl]-3-[(6-methylpyrazin-2-yl)methyl]tetrahydropyrimidin-2(1H)-one]
IC50: 3.36 µM

CN1CC2CN(C(=O)CN3CCN(c4cccc5c4cnn5-c4ccccc4F)C3=O)CC2C1 (stereo not shown) [Example 104, 1-[1-(2-fluorophenyl)-1H-indazol-4-yl]-3-[2-(5-methylhexahydropyrrolo[3,4-c]pyrrol-2(1H)-yl)-2-oxoethyl]imidazolidin-2-one]
IC50: 6.26 µM

O=C1N(Cc2ncco2)CCCN1c1cccc2c1cnn2-c1ccccc1F [Example 255, 1-[1-(2-fluorophenyl)-1H-indazol-4-yl]-3-(1,3-oxazol-2-ylmethyl)tetrahydropyrimidin-2(1H)-one]
IC50: 5.51 µM

Cc1noc(C)c1N1CCN(c2cccc3c2cnn3-c2ccccc2F)C1=O [Example 236, 1-(3,5-dimethyl-1,2-oxazol-4-yl)-3-[1-(2-fluorophenyl)-1H-indazol-4-yl]imidazolidin-2-one]
IC50: 0.924 µM

O=C(CN1CCN(c2cccc3c2cnn3-c2ccccc2F)C1=O)c1ccc(C(F)(F)F)cc1 [Example 151, 1-[1-(2-fluorophenyl)-1H-indazol-4-yl]-3-{2-oxo-2-[4-(trifluoromethyl)phenyl]ethyl}imidazolidin-2-one]
IC50: 20 µM

CC(C)(C)CNC(=O)CN1CCN(c2cccc3c2cnn3-c2ccccc2F)C1=O [Example 357, N-(2,2-dimethylpropyl)-2-{3-[1-(2-fluorophenyl)-1H-indazol-4-yl]-2-oxoimidazolidin-1-yl}acetamide]
IC50: 3.06 µM

O=C1N(c2cnccc2F)CCN1c1cccc2c1cnn2-c1ccccc1F [Example 154, 1-[1-(2-fluorophenyl)-1H-indazol-4-yl]-3-(4-fluoropyridin-3-yl)imidazolidin-2-one]
IC50: 2.87 µM

O=C(CN1CCN(c2cccc3c2cnn3-c2ccccc2F)C1=O)N1CCC(F)(F)C1 [Example 86, 1-[2-(3,3-difluoropyrrolidin-1-yl)-2-oxoethyl]-3-[1-(2-fluorophenyl)-1H-indazol-4-yl]imidazolidin-2-one]
IC50: 1.96 µM

O=C1CCC(N2CCN(c3cccc4c3cnn4-c3ccccc3F)C2=O)CC1 [Example 266, 1-[1-(2-fluorophenyl)-1H-indazol-4-yl]-3-(4-oxocyclohexyl)imidazolidin-2-one]
IC50: 3.02 µM

CC(C)NC(=O)CN1CCN(c2cccc3c2cnn3-c2ccccc2F)C1=O [Example 95, 2-{3-[1-(2-fluorophenyl)-1H-indazol-4-yl]-2-oxoimidazolidin-1-yl}-N-isopropylacetamide]
IC50: 2.68 µM

CC(C)CC(O)CN1CCCN(c2cccc3c2cnn3-c2ccccc2F)C1=O (stereo not shown) [Example 186, 1-[1-(2-fluorophenyl)-1H-indazol-4-yl]-3-(2-hydroxy-4-methylpentyl)tetrahydropyrimidin-2(1H)-one]
IC50: 1.41 µM

Cc1nc(CN2CCN(c3cccc4c3cnn4-c3ccccc3F)C2=O)c(C)o1 [Example 227, 1-[(2,5-dimethyl-1,3-oxazol-4-yl)methyl]-3-[1-(2-fluorophenyl)-1H-indazol-4-yl]imidazolidin-2-one]
IC50: 0.871 µM

O=C(CN1CCN(c2cccc3c2cnn3-c2ccccc2F)C1=O)NCC1CC1 [Example 209, N-(cyclopropylmethyl)-2-{3-[1-(2-fluorophenyl)-1H-indazol-4-yl]-2-oxoimidazolidin-1-yl}acetamide]
IC50: 1.06 µM

CN(CCN1CCOCC1)C(=O)CN1CCN(c2cccc3c2cnn3-c2ccccc2F)C1=O [Example 72, 2-{3-[1-(2-fluorophenyl)-1H-indazol-4-yl]-2-oxoimidazolidin-1-yl}-N-methyl-N-[2-(morpholin-4-yl)ethyl]acetamide]
IC50: 1.8 µM

CC(C)CS(=O)(=O)N1CCN(c2cccc3c2cnn3-c2ccccc2F)C1=O [Example 80, 1-[1-(2-fluorophenyl)-1H-indazol-4-yl]-3-(isobutylsulfonyl)imidazolidin-2-one]
IC50: 2.38 µM

O=C1N(CC2CCO2)CCN1c1cccc2c1cnn2-c1ccccc1F (stereo not shown) [Example 223, 1-[1-(2-fluorophenyl)-1H-indazol-4-yl]-3-(oxetan-2-ylmethyl)imidazolidin-2-one]
IC50: 11.2 µM

O=C1N(CC(=O)N2[C@H]3CC[C@@H]2CC3)CCN1c1cccc2c1cnn2-c1ccccc1F [Example 212, 1-{2-[(1s,4s)-7-azabicyclo[2.2.1]hept-7-yl]-2-oxoethyl}-3-[1-(2-fluorophenyl)-1H-indazol-4-yl]imidazolidin-2-one]
IC50: 1.14 µM

CCCS(=O)(=O)N1CCN(c2cccc3c2cnn3-c2ccccc2F)C1=O [Example 81, 1-[1-(2-fluorophenyl)-1H-indazol-4-yl]-3-(propylsulfonyl)imidazolidin-2-one]
IC50: 4.08 µM

O=C1N(c2cccc3c2cnn3-c2ccccc2F)CCN1C1CCC(O)C1 (stereo not shown) [Example 204, 1-[1-(2-fluorophenyl)-1H-indazol-4-yl]-3-(3-hydroxycyclopentyl)imidazolidin-2-one]
IC50: 3.41 µM

C[C@@]1(c2cccc(F)c2)C[C@@H](N2CCN(c3cccc4c3cnn4-c3ccccc3F)C2=O)CO1 [Example 203, 2,5-anhydro-1,3,4-trideoxy-2-(3-fluorophenyl)-4-{3-[1-(2-fluorophenyl)-1H-indazol-4-yl]-2-oxoimidazolidin-1-yl}-L-threo-pentitol]
IC50: 3.67 µM

O=C1N(c2cccc3c2cnn3-c2ccccc2F)CCN1c1cnn2cccnc12 [Example 190, 1-[1-(2-fluorophenyl)-1H-indazol-4-yl]-3-(pyrazolo[1,5-a]pyrimidin-3-yl)imidazolidin-2-one]
IC50: 1.09 µM

O=C1N(CC(=O)N2C[C@H](O)C[C@@H]2c2cc(F)ccc2F)CCN1c1cccc2c1cnn2-c1ccccc1F [Example 121, 1-{2-[(2R,4R)-2-(2,5-difluorophenyl)-4-hydroxypyrrolidin-1-yl]-2-oxoethyl}-3-[1-(2-fluorophenyl)-1H-indazol-4-yl]imidazolidin-2-one]
IC50: 2.41 µM

O=C1N(CC(=O)N2CCC[C@H]2C(F)(F)F)CCN1c1cccc2c1cnn2-c1ccccc1F [Example 169, 1-[1-(2-fluorophenyl)-1H-indazol-4-yl]-3-{2-oxo-2-[(2S)-2-(trifluoromethyl)pyrrolidin-1-yl]ethyl}imidazolidin-2-one]
IC50: 1.07 µM

O=C(CN1CCN(c2cccc3c2cnn3-c2ccccc2F)C1=O)C1CCCC1 [Example 144, 1-(2-cyclopentyl-2-oxoethyl)-3-[1-(2-fluorophenyl)-1H-indazol-4-yl]imidazolidin-2-one]
IC50: 2.1 µM

O=C(Nc1ccccc1)[C@H]1CCCN1C(=O)CN1CCN(c2cccc3c2cnn3-c2ccccc2F)C1=O [Example 120, 1-({3-[1-(2-fluorophenyl)-1H-indazol-4-yl]-2-oxoimidazolidin-1-yl}acetyl)-N-phenyl-D-prolinamide]
IC50: 4.18 µM

O=C1N(CC(O)CC2CCCCC2)CCN1c1cccc2c1cnn2-c1ccccc1F (stereo not shown) [Example 139, 1-(3-cyclohexyl-2-hydroxypropyl)-3-[1-(2-fluorophenyl)-1H-indazol-4-yl]imidazolidin-2-one]
IC50: 2.41 µM

O=C1N(c2cnccn2)CCN1c1cccc2c1cnn2-c1ccccc1F [Example 226, 1-[1-(2-fluorophenyl)-1H-indazol-4-yl]-3-(pyrazin-2-yl)imidazolidin-2-one]
IC50: 3.37 µM

O=C1N(CCc2cccnc2)CCN1c1cccc2c1cnn2-c1ccccc1F [Example 220, 1-[1-(2-fluorophenyl)-1H-indazol-4-yl]-3-[2-(pyridin-3-yl)ethyl]imidazolidin-2-one]
IC50: 1.84 µM

O=C(CC1CCC1)CN1CCN(c2cccc3c2cnn3-c2ccccc2F)C1=O [Example 140, 1-(3-cyclobutyl-2-oxopropyl)-3-[1-(2-fluorophenyl)-1H-indazol-4-yl]imidazolidin-2-one]
IC50: 0.878 µM

CC(C)c1cnc(CN2CCN(c3cccc4c3cnn4-c3ccccc3F)C2=O)o1 [Example 237, 1-[1-(2-fluorophenyl)-1H-indazol-4-yl]-3-[(5-isopropyl-1,3-oxazol-2-yl)methyl]imidazolidin-2-one]
IC50: 0.667 µM

NS(=O)(=O)CN1CCN(c2cccc3c2cnn3-c2ccccc2F)C1=O [Example 58, 1-{3-[1-(2-fluorophenyl)-1H-indazol-4-yl]-2-oxoimidazolidin-1-yl}methanesulfonamide]
IC50: 2.29 µM
